# Measured values: article PMC10946790, “A Functional Chemiluminescent Probe for in Vivo Imaging of Natural Killer Cell Activity Against Tumours” (Angewandte Chemie (Weinheim an Der Bergstrasse, Germany), 2021)
# Where a SMILES comes first, the peptide text is derived from it. The star is where a group is joined. AMC = Cc1cc(=O)oc2cc(N*)ccc12
# Molecular target: T1, hr‐granzyme B (Homo sapiens, UniProt P10144)
# T1 construct: in the absence and presence of active human recombinant (hr)‐granzyme B
# T1 sequence (P10144 21-247): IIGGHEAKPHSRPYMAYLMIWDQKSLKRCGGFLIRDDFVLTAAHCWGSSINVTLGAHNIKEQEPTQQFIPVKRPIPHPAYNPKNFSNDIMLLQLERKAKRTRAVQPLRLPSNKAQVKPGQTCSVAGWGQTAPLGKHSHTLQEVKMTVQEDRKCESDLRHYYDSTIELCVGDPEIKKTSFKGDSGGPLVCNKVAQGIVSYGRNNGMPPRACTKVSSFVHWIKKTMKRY
# Assay: Time-course signal-to-noise ratios after reaction with granzyme B
# Assay type: biochemical
# Conditions: probe 25 μM, hr-granzyme B 20 nM, aqueous buffer, 37 °C, over 30 minutes; mean ± SEM, n=6
# Method: In vitro characterisation assays. Enzymatic assays were run in a 384-well format in a PCR opaque microplate (Thermo Scientific). All experiments were performed at least in triplicate. Dilutions and reactions using human GZM B and human neutrophil elastase were prepared in 50 mM Tris-HCl and 100 mM NaCl (pH 7.4). GZM A assays were performed in 25 mM HEPES, 0.1% CHAPS and 10 mM DTT (pH 7.5). Dilutions and incubations with CASP8 and CASP9 were prepared in 50 mM HEPES, 100 mM NaCl, 0.1% Triton X-100, 10 mM DTT, 1 mM EDTA and 10% glycerol (pH 7.4). Any other tested biomolecules were prepared in PBS. Proteolytic activity was determined by calculating the fold change in chemiluminescence signal (or fluorescence signal in the case of Ac - IEPD-AMC) over background signal provided by the corresponding dilution of the probes with the enzyme using a spectrophotometer (Synergy H1 Hybrid Reader, BioTek) at 37°C.
# Unless otherwise stated, probes were utilized at a concentration of 100 μM. Enzyme concentration used: 20 nM (except CASP9, which was used at 200 nM) and all other biomolecules were tested at 100 μM. In the case where an inhibitor was used, the enzyme was pre-incubated for 1 h with the inhibitor (100 µM) before addition of probe 1.
# Cell culture. […]
compound,measurement,value
CC[C@H](C)[C@H](NC(C)=O)C(=O)N[C@@H](CCC(=O)O)C(=O)N1CCC[C@H]1C(=O)N[C@@H](CC(=O)O)C(=O)Nc1ccc2c(C)cc(=O)oc2c1 [Ac‐IEPD‐AMC] (Ac-IEPD-{AMC}),"Signal‐to‐noise (S/N) ratio, fluorescence",under 5
